SMILES strings stand for the structures. pEC50: −log10 of the molar value.

The source of these data is US9040532B2, “Alpha adrenergic receptor modulators” (Allergan, Inc., priority 2009, dated 2015).

Type in all cases: cell-based
One test addresses T1, Alpha 2B (Homo sapiens, UniProt P18089).
T1 sequence (P18089 1-450): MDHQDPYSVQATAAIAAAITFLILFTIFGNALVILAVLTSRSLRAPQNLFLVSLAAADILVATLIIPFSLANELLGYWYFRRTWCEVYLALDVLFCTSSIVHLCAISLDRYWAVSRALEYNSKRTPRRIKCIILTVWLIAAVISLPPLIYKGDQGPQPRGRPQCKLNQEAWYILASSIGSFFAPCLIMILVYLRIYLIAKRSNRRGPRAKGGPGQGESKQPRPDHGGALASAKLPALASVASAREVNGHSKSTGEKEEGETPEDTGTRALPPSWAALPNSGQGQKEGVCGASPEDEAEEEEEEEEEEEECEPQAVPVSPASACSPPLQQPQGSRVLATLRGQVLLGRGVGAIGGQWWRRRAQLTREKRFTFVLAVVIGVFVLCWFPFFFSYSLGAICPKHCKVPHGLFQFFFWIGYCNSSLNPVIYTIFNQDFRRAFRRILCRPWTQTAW
Nature of the test: FLIPR assay, intracellular Ca2+ mobilization, alpha 2B. As to conditions: FLIPR; for pEC50: agonist, read-out: Alpha 2B Potency (EC50); for Alpha 2B relative efficacy compared to a standard full agonist: value in parentheses. How it is done: (§1) Cells are loaded into a plate reader with a Ca^2+ dye indicator and incubated with various compounds. This assay is adequate for monitoring the intracellular Ca^2+ mobilization from fluorescent readings to evaluate receptor agonists.
(Calcium flux is commonly read through the fluorescence of an indicator in the cells.)

Another test has as its target T2, Alpha 2A (Homo sapiens, UniProt P08913).
T2 sequence (P08913 1-465): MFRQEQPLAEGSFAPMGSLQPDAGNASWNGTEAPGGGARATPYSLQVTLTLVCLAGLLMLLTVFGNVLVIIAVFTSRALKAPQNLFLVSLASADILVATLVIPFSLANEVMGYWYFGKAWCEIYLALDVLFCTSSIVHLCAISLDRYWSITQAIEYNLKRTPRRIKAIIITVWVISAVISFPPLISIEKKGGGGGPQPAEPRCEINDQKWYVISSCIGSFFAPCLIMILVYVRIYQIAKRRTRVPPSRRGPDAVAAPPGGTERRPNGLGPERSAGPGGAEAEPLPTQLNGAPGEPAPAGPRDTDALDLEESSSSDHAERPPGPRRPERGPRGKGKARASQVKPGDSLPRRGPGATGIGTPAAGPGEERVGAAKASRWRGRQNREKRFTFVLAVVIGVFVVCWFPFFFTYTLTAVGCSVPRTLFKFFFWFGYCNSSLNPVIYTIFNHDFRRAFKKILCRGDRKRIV
Put plainly: FLIPR assay, intracellular Ca2+ mobilization, alpha 2A. As to conditions: for pEC50: agonist, read-out: Alpha 2A Potency (EC50); for Alpha 2A relative efficacy compared to a standard full agonist: value in parentheses. As to the method: The compounds described herein were tested for alpha adrenergic activity using a Fluorometric Imaging plate Reader (FLIPR) assay (Princen et al., 2003, Cytometry Part A. 51, pp. 35-45). Cells are loaded into a plate reader with a Ca^2+ dye indicator and incubated with various compounds. This assay is adequate for monitoring the intracellular Ca^2+ mobilization from fluorescent readings to evaluate receptor agonists. […] The compounds described herein activate alpha adrenergic receptors.

Another test has as its target T3, Alpha 2C (Homo sapiens, UniProt P18825).
T3 sequence (P18825 1-462): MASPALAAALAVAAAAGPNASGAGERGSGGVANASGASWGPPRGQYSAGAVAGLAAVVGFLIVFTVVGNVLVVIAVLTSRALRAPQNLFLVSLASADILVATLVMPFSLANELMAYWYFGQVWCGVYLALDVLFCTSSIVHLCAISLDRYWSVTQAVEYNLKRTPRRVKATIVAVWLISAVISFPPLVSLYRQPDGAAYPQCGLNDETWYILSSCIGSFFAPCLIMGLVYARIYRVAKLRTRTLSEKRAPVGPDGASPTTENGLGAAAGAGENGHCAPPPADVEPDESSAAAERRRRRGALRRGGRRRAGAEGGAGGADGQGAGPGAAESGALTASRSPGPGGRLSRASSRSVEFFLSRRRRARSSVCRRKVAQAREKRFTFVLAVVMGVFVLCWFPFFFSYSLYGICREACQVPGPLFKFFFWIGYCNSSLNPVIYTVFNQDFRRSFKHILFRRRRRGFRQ
Nature of the test: FLIPR assay, intracellular Ca2+ mobilization, alpha 2C. As to conditions: for pEC50: agonist, read-out: Alpha 2C Potency (EC50); for Alpha 2C relative efficacy compared to a standard full agonist: value in parentheses. As to the method:
as §1

Usually pEC50 stands for the EC50 on a negative log10 scale, so that one unit is a factor of ten. On to `c1ccc2c(NC3=NCCC3)cccc2c1` [Compound 1, N-1-Naphthyl-3,4-dihydro-2H-pyrrol-5-amine], for which, at Alpha 2B, the negative-log EC50 (pEC50) is 7.52 and the “Alpha 2B relative efficacy compared to a standard full agonist” value (“Alpha 2B relative efficacy” for short) is “(0.16)”. Further, on Alpha 2A, the pEC50 was 7.21 and the “Alpha 2A relative efficacy compared to a standard full agonist” value is “(0.81)”. Moreover, on Alpha 2C, the pEC50 is 8.30 and the “Alpha 2C relative efficacy compared to a standard full agonist” value (shortened to “Alpha 2C relative efficacy”) was “(0.88)”.

As to `c1cnc2c(NC3=NCCC3)cccc2c1` [Compound 30, N-(3,4-dihydro-2H-pyrrol-5-yl)quinolin-8-amine], at Alpha 2C, the pEC50 was 5.53 and the “Alpha 2C relative efficacy” value is listed as “(0.71)”.

`Cc1c(NC2=NCCC2)ccc2[nH]ccc12` [Compound 18, N-(3,4-Dihydro-2H-pyrrol-5-yl)-4-methyl-1H-indol-5-amine]: on Alpha 2B, the pEC50 is 7.41 and the “Alpha 2B relative efficacy” value is listed as “(0.18)”. At Alpha 2C, the pEC50 is 7.16 and the “Alpha 2C relative efficacy” value is listed as “(0.9)”.

As to `c1ccc2c(c1)CC[C@@H]2NC1=NCCC1` [Compound 33, N-[(1S)-2,3-Dihydro-1H-inden-1-yl]-3,4-dihydro-2H-pyrrol-5-amine], at Alpha 2C, the pEC50 was 6.55 and the “Alpha 2C relative efficacy” value was “(0.68)”.

`c1cc2cc(NC3=NCCC3)ccc2[nH]1` [Compound 17, N-(3,4-Dihydro-2H-pyrrol-5-yl)-1H-indol-5-amine]: at Alpha 2B, the negative logarithm of the EC50 (pEC50) was 8.00 and the “Alpha 2B relative efficacy” value was “(0.15)”. In addition, at Alpha 2C, the pEC50 was 8.05 and the “Alpha 2C relative efficacy” value was “(0.9)”.

On to `Brc1ccc(NC2=NCCC2)c2ccccc12` [Compound 3, N-(4-Bromo-1-naphthyl)-3,4-dihydro-2H-pyrrol-5-amine], for which, on Alpha 2B, the pEC50 is 6.15 and the “Alpha 2B relative efficacy” value is “(0.15)”. In addition, on Alpha 2C, the pEC50 was 6.08 and the “Alpha 2C relative efficacy” value is listed as “(0.85)”.

Consider `c1cc2c(c(NC3=NCCC3)c1)CCC2` [Compound 16, N-(2,3-Dihydro-1H-inden-4-yl)-3,4-dihydro-2H-pyrrol-5-amine], for which, at Alpha 2C, the pEC50 was 6.91 and the “Alpha 2C relative efficacy” value was “(0.85)”.

`c1nc2cc(NC3=NCCC3)ccc2[nH]1` [Compound 4, N-(3,4-Dihydro-2H-pyrrol-5-yl)-1H-benzimidazol-5-amine]: on Alpha 2B, the pEC50 is 6.15 and the “Alpha 2B relative efficacy” value is “(0.19)”. At Alpha 2C, the pEC50 is 6.85 and the “Alpha 2C relative efficacy” value is reported as “(1.06)”.

For `c1nc2c(cc1NC1=NCCC1)CCC2` [Compound 5, N-(3,4-Dihydro-2H-pyrrol-5-yl)-6,7-dihydro-5H-cyclopenta[b]pyridin-3-amine], at Alpha 2C, the pEC50 is 5.89 and the “Alpha 2C relative efficacy” value is listed as “(0.86)”.

On to `Clc1c(/N=C2\CCCN2)cnc2cccnc12` [Compound 6, 4-Chloro-N-[(2E)-pyrrolidin-2-ylidene]-1,5-naphthyridin-3-amine], for which, at Alpha 2C, the pEC50 was 5.59 and the “Alpha 2C relative efficacy” value is recorded as “(0.59)”.

In the case of `c1cnc2cc(NC3=NCCC3)ccc2c1` [Compound 28, N-(3,4-Dihydro-2H-pyrrol-5-yl)quinolin-7-amine], at Alpha 2C, the pEC50 is 6.98 and the “Alpha 2C relative efficacy” value is “(0.96)”.

Consider `Clc1ccc(NC2=NCCC2)c2ccccc12` [Compound 7, N-(4-Chloro-1-naphthyl)-3,4-dihydro-2H-pyrrol-5-amine], for which, at Alpha 2B, the pEC50 was 5.97 and the “Alpha 2B relative efficacy” value is reported as “(0.33)”. Further, at Alpha 2C, the pEC50 was 6.17 and the “Alpha 2C relative efficacy” value is “(0.84)”.

`Fc1cccc2c1C(NC1=NCCC1)CC2` (centres unmarked) [Compound 35, N-(7-Fluoro-2,3-dihydro-1H-inden-1-yl)-3,4-dihydro-2H-pyrrol-5-amine]: on Alpha 2B, the pEC50 is 6.21 and the “Alpha 2B relative efficacy” value is given as “(0.44)”. Further, at Alpha 2C, the pEC50 was 6.25 and the “Alpha 2C relative efficacy” value was “(0.87)”.

Consider `Cc1c(/N=C2\CCCN2)cnc2[nH]ccc12` [Compound 38, 4-Methyl-N-[(2E)-pyrrolidin-2-ylidene]-1H-pyrrolo[2,3-b]pyridin-5-amine], for which, on Alpha 2A, the pEC50 is 6.26 and the “Alpha 2A relative efficacy compared to a standard full agonist” value is “(0.79)”. Further, at Alpha 2C, the pEC50 was 7.66 and the “Alpha 2C relative efficacy” value was “(0.9)”.

Consider `c1cc2ccc(NC3=NCCC3)cc2[nH]1` [Compound 21, N-(3,4-Dihydro-2H-pyrrol-5-yl)-1H-indol-6-amine], for which, on Alpha 2C, the pEC50 is 6.55 and the “Alpha 2C relative efficacy” value was “(0.75)”.

With `Clc1cc(NC2=NCCC2)cc2nc[nH]c12` [Compound 13, 7-Chloro-N-(3,4-dihydro-2H-pyrrol-5-yl)-1H-benzimidazol-5-amine], at Alpha 2B, the pEC50 is 5.74 and the “Alpha 2B relative efficacy” value is “(0.35)”. At Alpha 2C, the pEC50 was 6.36 and the “Alpha 2C relative efficacy” value is “(0.98)”.

For `Brc1cc(NC2=NCCC2)cc2cc[nH]c12` [Compound 20, 7-Bromo-N-(3,4-dihydro-2H-pyrrol-5-yl)-1H-indol-5-amine], at Alpha 2B, the pEC50 was 7.10 and the “Alpha 2B relative efficacy” value is reported as “(0.61)”. At Alpha 2C, the pEC50 is 7.92 and the “Alpha 2C relative efficacy” value is reported as “(0.95)”.

For `c1cc(NC2=NCCC2)c2[nH]ccc2c1` [Compound 22, N-(3,4-Dihydro-2H-pyrrol-5-yl)-1H-indol-7-amine], on Alpha 2C, the pEC50 is 5.67 and the “Alpha 2C relative efficacy” value was “(0.61)”.

Consider `c1cc(NC2=NCCC2)c2cnccc2c1` [Compound 32, N-(3,4-Dihydro-2H-pyrrol-5-yl)isoquinolin-8-amine], for which, on Alpha 2C, the pEC50 was 6.19 and the “Alpha 2C relative efficacy” value was “(0.95)”.

Take `Cc1cc(NC2=NCCC2)cc2cc[nH]c12` [Compound 19, N-(3,4-Dihydro-2H-pyrrol-5-yl)-7-methyl-1H-indol-5-amine]: at Alpha 2B, the pEC50 was 6.85 and the “Alpha 2B relative efficacy” value is given as “(0.29)”. Further, at Alpha 2C, the pEC50 is 7.92 and the “Alpha 2C relative efficacy” value is given as “(0.85)”.

For `c1cnc2cc(NC3=NCCC3)ccc2n1` [Compound 14, N-(3,4-Dihydro-2H-pyrrol-5-yl)quinoxalin-6-amine], at Alpha 2C, the negative logarithm of the EC50 (pEC50) is 5.56 and the “Alpha 2C relative efficacy” value is given as “(0.66)”.

As for `c1cc2cc(NC3=NCCC3)ccc2s1` [Compound 23, N-1-Benzothien-5-yl-3,4-dihydro-2H-pyrrol-5-amine], at Alpha 2C, the pEC50 was 7.05 and the “Alpha 2C relative efficacy” value is “(0.66)”.

Take `c1ccc2c(c1)CCC[C@@H]2NC1=NCCC1` [Compound 34, N-[(1S)-1,2,3,4-Tetrahydronaphthalen-1-yl]-3,4-dihydro-2H-pyrrol-5-amine]: on Alpha 2B, the pEC50 was 6.79 and the “Alpha 2B relative efficacy” value was “(0.43)”. Moreover, at Alpha 2C, the pEC50 is 6.66 and the “Alpha 2C relative efficacy” value is “(0.8)”.

With `c1cc2cc(NC3=NCCC3)ccc2o1` [Compound 24, N-1-Benzofuran-5-yl-3,4-dihydro-2H-pyrrol-5-amine], at Alpha 2C, the pEC50 was 6.20 and the “Alpha 2C relative efficacy” value was “(0.51)”.
